Among the data in patent US12187722B2, “Small molecule inhibitors of TEAD transcription factors” (The General Hospital Corporation, priority 2019, dated 2025) are inhibition values, retold here.

Sequence of TEAD2 (Q15562 whole entry): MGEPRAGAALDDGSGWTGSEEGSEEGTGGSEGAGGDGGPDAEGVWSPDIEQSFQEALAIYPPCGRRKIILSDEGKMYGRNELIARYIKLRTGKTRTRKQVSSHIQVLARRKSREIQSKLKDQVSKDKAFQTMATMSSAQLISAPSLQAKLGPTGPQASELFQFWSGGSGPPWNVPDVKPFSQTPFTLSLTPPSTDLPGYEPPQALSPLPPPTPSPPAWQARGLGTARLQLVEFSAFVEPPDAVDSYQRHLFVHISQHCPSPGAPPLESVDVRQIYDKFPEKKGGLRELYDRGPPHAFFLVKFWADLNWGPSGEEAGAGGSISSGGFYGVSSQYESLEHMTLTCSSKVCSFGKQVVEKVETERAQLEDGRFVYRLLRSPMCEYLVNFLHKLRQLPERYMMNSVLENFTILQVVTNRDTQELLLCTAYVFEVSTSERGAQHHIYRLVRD

The target in one experiment is TEAD2 (Homo sapiens (Human), UniProt Q15562). The experiment can be described thus: In vitro palmitoylation (TEAD2 autopalmitoylation, streptavidin blot). It counts as biochemical. To be noted: compound at 10 μM. How it is done:
Recombinant GST-TEAD2 or His6TEAD2 (500 ng) protein was pre-incubated with the compounds at indicated concentrations for 15 min. and then incubated with 1 μM of alkyne palmitoyl-5 CoA (Cayman Chemical) for 30 min or 50 mM MES, pH 6.4, followed by Click reaction with biotin-azide as previously described (Zheng, B. et al., J. Am. Chem. Soc., 2013, 135, 7082-7085). Click reaction was performed with 100 μM biotin-azide, 1 mM tris(2-carboxyethyl) phosphine hydrochloride (TCEP), 100 μM tris[(1-benzyl-1H-1,2,3-triazol-4-yl) methyl] amine (TBTA) and 1 mM CuSO4 for 1 h at RT.
The reactions were terminated by the addition of 12 μL of 6×SDS-sample loading buffer (50 mM Tris-HCl, pH 6.8, 6% SDS, 48% Glycerol, 0.03% Bromophenol Blue, 30 mM EDTA, 9% MeSH). Samples were analysed by SDS-PAGE and Western blot was performed by probing with streptavidin HRP and histidine HRP antibodies independently. Bands intensity obtained from streptavidin blot were quantified using BIORAD, Gel doc system and the percentage of inhibition of Tead2 auto palmitoylation is determined by comparing to the DMSO control treated samples.
These compounds were tested for activity in inhibiting TEAD2 palmitoylation in the assay described above.
As a reminder, the inhibition is the change of the read-out against control, counted positive when it falls. Low values mean a response near the control, high ones a response far below the control. As to `O=C(Nc1ccc(C23CC4CC(CC(C4)C2)C3)cc1)c1cccnc1Nc1cccc(C(F)(F)F)c1`, the inhibition at 10 µM was 50%.
The same measure, in the same setting: the figure for `C=CC(=O)c1ccccc1Nc1ccc(Nc2ccc(C34CC5CC(CC(C5)C3)C4)cc2)cc1` is 5%.
Take `O=C(Nc1ccc(C23CC4CC(CC(C4)C2)C3)cc1)c1ccc2nc[nH]c2c1`: the inhibition at 10 µM was 5%.
On the same count and under the same terms, then `O=C(OCC(O)CO)c1ccccc1Nc1ccc(Nc2ccc(C34CC5CC(CC(C5)C3)C4)cc2)cc1` (stereo not drawn), with 80%; and `O=C(Nc1ccc(C23CC4CC(CC(C4)C2)C3)cc1)Nc1ccc2nc[nH]c2c1`, with 20%; and `Clc1cc(C23CC4CC(CC(C4)C2)C3)ccc1Nc1ccc(Nc2ccccc2-c2nnn[nH]2)cc1`, with 20%.
Still for that read-out and setting: then `O=C(Nc1ccc(C23CC4CC(CC(C4)C2)C3)cc1Cl)c1ccc2nc[nH]c2c1`, with 20%; and `O=C(CN1CCC[C@H]1C(=O)O)Nc1ccc(C23CC4CC(CC(C4)C2)C3)cc1`, with 8%.
Take `N#Cc1cc(Nc2ccc(C34CC5CC(CC(C5)C3)C4)cc2)ccc1Nc1ccccc1C(=O)O`: testing at 10 µM gave an inhibition of 80%.
The compound `CC(C)(C)OC(=O)c1ccc(Nc2ccc(Nc3ccccc3C(=O)O)cc2)cc1` gave an inhibition at 10 µM of 100%.
The same measure, in the same setting: the figure for `CC(C)c1ccccc1-c1ccc(NC(=O)CC2CN(C(=O)OC(C)(C)C)C2)cc1` is 100%.

The experiment is the same for the next values; noted with them: compound at 10 μM; Table 2.
The compound `O=C(Nc1ccc(Nc2ccc(C34CC5CC(CC(C5)C3)C4)cc2Cl)cc1)[C@H]1CCC[C@H]1C(=O)O` (stereo in doubt) [compound 288] yielded an inhibition at 10 µM of 53%.
On the same count and under the same terms, the figure for `CC(C)COc1ccc(Nc2ccc(N(C)c3ccc(C45CC6CC(CC(C6)C4)C5)cc3)cc2)c(C(=O)O)c1` [CP-453] is 0%.

The same experiment, now with this note: compound at 10 μM; Table 3.
In turn, `COCCC(=O)Nc1ccc(C(=O)OC)c(Nc2ccc(N(C)c3ccc(C45CC6CC(CC(C6)C4)C5)cc3)cc2)c1` [CP-472] yielded an inhibition at 10 µM of 1%.
On the same count and under the same terms, then `COCCC(=O)Nc1ccc(C(=O)O)c(Nc2ccc(N(C)c3ccc(C45CC6CC(CC(C6)C4)C5)cc3)cc2)c1` [CP-473], with 50%; and `COc1ccc(Nc2ccc(N(C)c3ccc(C45CC6CC(CC(C6)C4)C5)cc3)cc2)c(CO)c1` [CP-516], with 20%.
On the same count and under the same terms, then `CN(C)CCOc1ccc(Nc2ccc(N(C)c3ccc(C45CC6CC(CC(C6)C4)C5)cc3)cc2)c(C(=O)O)c1` [CP-526], with 23%.
For the compound `COc1ccc(Nc2ccc(N(C)c3ccc(Cl)cc3)cc2)c(C(=O)O)c1` [CP-535], the inhibition at 10 µM stood at 54%.
Same read-out and setting: the figure for `COCCOc1ccc(Nc2ccc(N(C)c3ccc(C4CCCCC4)cc3)cc2)c(C(=O)O)c1` [CP-536] is 84%; for `COc1ccc(Nc2ccc(N(C)c3ccc(C45CC6CC(CC(C6)C4)C5)cc3)cc2F)c(C(=O)O)c1` [CP-537] it is 73%; for `O=C(O)c1ccccc1Nc1cnc(Oc2ccc(C34CC5CC(CC(C5)C3)C4)cc2Cl)cn1` [CP-540] it is 75%.
`CN(c1ccc(Nc2ncccc2C(=O)O)cc1)c1ccc(C(F)(F)F)cc1` [CP-541] showed an inhibition at 10 µM of 80%.
For `COc1ccc(Nc2ccc(N(C)c3ccc(Cl)cc3Cl)cc2)c(C(=O)O)c1` [CP-542], testing at 10 µM gave an inhibition of 49%.
The same measure, in the same setting: then `O=C(O)c1ccccc1Nc1ccc(Oc2ccc(C(F)(F)F)cc2Cl)cc1` [CP-543], with 98%; and `COc1ccc(Nc2ccc(Oc3ccc(C(F)(F)F)cc3Cl)cc2)c(C(=O)O)c1` [CP-544], with 98%.
`COc1ccc(Nc2ccc(N(C)c3ccccc3OC)cc2)c(C(=O)O)c1` [CP-545] displayed an inhibition at 10 µM of 6%.
The same measure, in the same setting: then `COc1ccc(Nc2ccc(N(C)c3ccc(N4CCOCC4)cc3)cc2)c(C(=O)O)c1` [CP-547], with 18%; and `COc1ccc(Nc2ccc(N(C)c3ccc(C4CCC(F)(F)CC4)cc3)cc2)c(C(=O)O)c1` [CP-552], with 74%; and `COc1ccc(Nc2ccc(N(C)c3ccc(C4CCC4)cc3)cc2)c(C(=O)O)c1` [CP-556], with 61%.
For `COc1ccc(Nc2ccc(N(C)c3ccc(C4=CCC(F)(F)CC4)cc3)cc2)c(C(=O)O)c1` [CP-557], the inhibition at 10 µM came to 34%.
Still for that read-out and setting: the figure for `CN(c1ccc(Nc2ncccc2C(=O)O)cc1)c1ccc(C2CCCCC2)cc1` [CP-558] is 66%; for `O=C(O)c1ccccc1Nc1cnc(Oc2ccc(C3CCCCC3)cc2Cl)cn1` [CP-559] it is 79%; for `Cc1cc(Oc2ccc(C34CC5CC(C)(CC(C)(C5)C3)C4)cc2Cl)ccc1Nc1ccccc1C(=O)O` [CP-561] it is 90%.
On to `COc1ccc(Nc2ccc(N(C)c3ccc(C(F)(F)F)cc3)cc2C)c(C(=O)O)c1` [CP-563], for which the inhibition at 10 µM was determined as 80%.
`COc1ccc(Nc2ccc(Oc3ccc(C45CC6CC(C)(CC(C)(C6)C4)C5)cc3Cl)cc2C)c(C(=O)O)c1` [CP-564] yielded an inhibition at 10 µM of 89%.
`COc1ccc(Nc2ccc(N(C)c3ccc(CN4CCCCC4)cc3)cc2)c(C(=O)O)c1` [CP-567] returned an inhibition at 10 µM of 6%.
Same read-out and setting: then `COc1ccc(Nc2ccc(N(C)c3ccc(OCC(F)(F)F)cc3)cc2F)c(C(=O)O)c1` [CP-568], with 46%.
Same read-out and setting: then `COc1ccc(Nc2ccc(F)cc2Oc2ccc(C34CC5CC(C)(CC(C)(C5)C3)C4)cc2Cl)c(C(=O)O)c1` [CP-569], with 59%; and `COc1ccc(Nc2ccc(N(C)c3ccc(C(F)(F)F)cc3)cc2F)c(C(=O)O)c1` [CP-572], with 72%; and `COc1ccc(Nc2ccc(N(C)c3ccc(S(F)(F)(F)(F)F)cc3)cc2F)c(C(=O)O)c1` [CP-573], with 74%.
Same read-out and setting: the figure for `COc1ccc(Nc2ccc(N(C)c3ccc(C4CCC(C)CC4)cc3)cc2)c(C(=O)O)c1` (stereo not drawn) [CP-574] is 91%.
With `COc1ccc(Nc2ccc(Oc3ccc(C(F)F)cc3Cl)cc2)c(C(=O)O)c1` [CP-575], the inhibition at 10 µM is 47%.
On the same count and under the same terms, the figure for `COc1ccc(Nc2ccc(N(C)c3ccc(C(F)(F)F)cn3)cc2)c(C(=O)O)c1` [CP-576] is 42%; for `COc1ccc(Nc2ccc(N(C)c3ccc(C4CC5CCC4C5)cc3)cc2C)c(C(=O)O)c1` (stereo not drawn) [CP-577] it is 79%.
`COc1ccc(Nc2ccc(N(C)c3ccc(C4CCCCC4)nc3)cc2)c(C(=O)O)c1` [CP-578]: the inhibition at 10 µM came to 31%.
On to `Cc1cc(N(C)c2ccc(C3CCCCC3)cc2)ccc1Nc1ccc(C(F)(F)F)cc1C(=O)O` [CP-579], for which the inhibition at 10 µM worked out at 61%.
On the same count and under the same terms, the figure for `Cc1cc(N(C)c2ccc(C3CCCCC3)cc2)ccc1Nc1ccc(OC(F)(F)F)cc1C(=O)O` [CP-580] is 58%; for `COc1ccc(Nc2ccc(N(C)c3ccc(C4CCCCC4)cn3)cc2)c(C(=O)O)c1` [CP-581] it is 40%; for `COc1ccc(Nc2ccc(N(C)c3ccc(C4CCN(C)CC4)cc3)cc2)c(C(=O)O)c1` [CP-582] it is 0%.
On the same count and under the same terms, then `COc1ccc(Nc2cccc(C(=O)Nc3ccc(C(F)(F)F)cc3)c2)c(C(=O)O)c1` [CP-586], with 40%; and `COc1ccc(Oc2ccc(N(C)c3ccc(C(F)(F)F)cc3)cc2)c(C(=O)O)c1` [CP-587], with 36%; and `COc1ccc(Nc2ccc(N(C)c3nc(C(F)(F)F)cs3)cc2)c(C(=O)O)c1` [CP-588], with 36%.
As for `COc1ccc(Nc2ccc(Oc3ccc(C4CCCCC4)cc3Cl)nc2)c(C(=O)O)c1` [CP-591], the inhibition at 10 µM was determined as 88%.
`COc1ccc(Nc2ccc(N(C)c3ccc(C(F)(F)F)cc3)nc2)c(C(=O)O)c1` [CP-592] had an inhibition at 10 µM of 40%.
The same measure, in the same setting: the figure for `COc1ccc(Nc2cnc(N(C)c3ccc(C4CCCCC4)cc3)nc2)c(C(=O)O)c1` [CP-594] is 46%; for `COc1ccc(Nc2ccc(N(C)c3ccc(S(F)(F)(F)(F)F)cc3)nc2)c(C(=O)O)c1` [CP-595] it is 51%.
`COc1ccc(Nc2ccc(N(C)c3ccc(OC(F)(F)F)cc3)nc2)c(C(=O)O)c1` [CP-596] returned an inhibition at 10 µM of 48%.
The compound `COc1ccc(Nc2ccc(N(C)c3nc(C4CCCCC4)cs3)cc2)c(C(=O)O)c1` [CP-597] returned an inhibition at 10 µM of 63%.
Same read-out and setting: then `COc1ccc(Nc2cnc(Oc3ccc(C4CCCCC4)cc3Cl)cc2C)c(C(=O)O)c1` [CP-599], with 57%; and `COc1ccc(Nc2ccc(Oc3ccc(OC(F)(F)F)cc3Cl)nc2)c(C(=O)O)c1` [CP-600], with 37%.
Still for that read-out and setting: the figure for `COc1ccc(Nc2ccc(Oc3ccc(C(F)(F)F)cc3Cl)nc2)c(C(=O)O)c1` [CP-601] is 46%.
The same measure, in the same setting: the figure for `COc1ccc(Nc2cnc(N(C)c3ccc(C(F)(F)F)cc3)nc2)c(C(=O)O)c1` [CP-602] is 5%; for `COc1ccc(Nc2ccc(N(C)c3ccc(C4CCC(C(F)(F)F)CC4)cc3)cc2)c(C(=O)O)c1` (stereo not drawn) [CP-603] it is 83%; for `COc1ccc(Nc2ccc(N(C)c3ccc(C(F)(F)F)cc3)cc2)c(C(N)=O)c1` [CP-605] it is 47%.
In the case of `CNC(=O)c1cc(OC)ccc1Nc1ccc(N(C)c2ccc(C(F)(F)F)cc2)cc1` [CP-606], the inhibition at 10 µM is 63%.
On the same count and under the same terms, then `COc1ccc(Nc2ccc(N(C)c3ccc(C(F)(F)F)cc3)cc2)c(C(=O)N(C)C)c1` [CP-607], with 37%.
